Measured values reported in patent US10287258B2, “Certain (2S)-N-[(1S)-1-cyano-2-phenylethyl]-1,4-oxazepane-2-carboxamides as dipeptidyl peptidase 1 inhibitors” (AstraZeneca AB, priority 2014, dated 2019).

Each compound was assayed against recombinant human DPP1 (rhDPP1) (Homo sapiens (Human), UniProt P53634) (assay: Test A1: Fluorescence assay for recombinant human (RH) DPP1). Conditions: Test A1 (Examples 1-35); rhDPP1 ~50 pM, 100 μM H-Gly-Arg-AMC, pH 5.0, 22° C.
Format: biochemical
Experimental: Test A1: Fluorescence Assay for Recombinant Human (RH) DPP1
The activity of DPP1 was determined by measuring the enzymatic release of aminomethyl coumarin (AMC) from the peptide substrate (H-Gly-Arg-AMC), which leads to an increase in fluorescence intensity at λex=350 nm and λem=450 nm. The assay was carried out in black 384 well plates in a final volume of 50 μl at 22° C. The assay conditions contained the following: 25 mM piperazine buffer pH 5.0; 50 mM NaCl, 5 mM DTT; 0.01% (v/v) Triton X-100; 100 μM H-Gly-Arg-AMC and rhDPP1 (˜50 pM). […] Routinely, inhibitors were pre-incubated with rhDPP1 for 30-60 min prior to the addition of the peptide substrate to start the reaction for a further 60 min at 22° C.

Chain of recombinant human DPP1 (rhDPP1) (P53634 231-394): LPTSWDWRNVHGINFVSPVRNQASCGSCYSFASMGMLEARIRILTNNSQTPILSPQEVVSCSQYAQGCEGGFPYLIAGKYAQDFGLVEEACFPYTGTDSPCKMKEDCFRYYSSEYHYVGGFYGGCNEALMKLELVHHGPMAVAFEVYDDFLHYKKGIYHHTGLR
Chain of recombinant human DPP1 (rhDPP1) (P53634 25-134): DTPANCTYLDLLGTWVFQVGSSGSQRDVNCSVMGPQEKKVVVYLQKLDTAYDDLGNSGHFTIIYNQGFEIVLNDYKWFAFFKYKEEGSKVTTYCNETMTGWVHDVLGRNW
Chain of recombinant human DPP1 (rhDPP1) (P53634 395-463): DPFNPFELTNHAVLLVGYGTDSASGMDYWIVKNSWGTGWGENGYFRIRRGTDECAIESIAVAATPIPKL

Structure (SMILES)	DPP1 activity, pIC50
Cn1c(=O)oc2c(F)cc(-c3ccc(C[C@@H](C#N)NC(=O)[C@@H]4CNCCCO4)cc3)cc21 [Example 15, (2S)-N-{(1S)-1-Cyano-2-[4-(7-fluoro-3-methyl-2-oxo-2,3-dihydro-1,3-benzoxazol-5-yl)phenyl]ethyl}-1,4-oxazepane-2-carboxamide]	8.29
N#C[C@H](Cc1ccc(-c2cc(F)c3oc(=O)n(CC(F)F)c3c2)cc1)NC(=O)[C@@H]1CNCCCO1 [Example 12, (2S)-N-[(1S)-1-Cyano-2-{4-[3-(2,2-difluoroethyl)-7-fluoro-2-oxo-2,3-dihydro-1,3-benzoxazol-5-yl]phenyl}ethyl]-1,4-oxazepane-2-carboxamide]	8.0
N#C[C@H](Cc1ccc(-c2ccc(S(=O)(=O)N3CCC3)cc2)cc1)NC(=O)[C@@H]1CNCCCO1 [Example 31, (2S)-N-{(1S)-2-[4′-(Azetidin-1-ylsulfonyl)biphenyl-4-yl]-1-cyanoethyl}-1,4-oxazepane-2-carboxamide]	7.67
N#C[C@H](Cc1ccc(-c2ccc3oc(=O)n(CC(F)F)c3c2)cc1)NC(=O)[C@@H]1CNCCCO1 [Example 27, (2S)-N-[(1S)-1-Cyano-2-{4-[3-(2,2-difluoroethyl)-2-oxo-2,3-dihydro-1,3-benzoxazol-5-yl]phenyl}ethyl]-1,4-oxazepane-2-carboxamide]	8.18
CN1C(=O)C(F)(F)c2ccc(-c3ccc(C[C@@H](C#N)NC(=O)[C@@H]4CNCCCO4)cc3)cc21 [Example 14, (2S)-N-{(1S)-1-Cyano-2-[4-(3,3-difluoro-1-methyl-2-oxo-2,3-dihydro-1H-indol-6-yl)phenyl]ethyl}-1,4-oxazepane-2-carboxamide]	7.78
N#C[C@H](Cc1ccc(-c2ccc3scnc3c2)cc1)NC(=O)[C@@H]1CNCCCO1 [Example 33, (2S)-N-{(1S)-2-[4-(1,3-Benzothiazol-5-yl)phenyl]-1-cyanoethyl}-1,4-oxazepane-2-carboxamide]	7.21
Cn1c(=O)ccc2ccc(-c3ccc(C[C@@H](C#N)NC(=O)[C@@H]4CNCCCO4)cc3)cc21 [Example 24, (2S)-N-{(1S)-1-Cyano-2-[4-(1-methyl-2-oxo-1,2-dihydroquinolin-7-yl)phenyl]ethyl}-1,4-oxazepane-2-carboxamide]	7.86
Cc1noc2ccc(-c3ccc(C[C@@H](C#N)NC(=O)[C@@H]4CNCCCO4)cc3)cc12 [Example 5, (2S)-N-{(1S)-1-Cyano-2-[4-(3-methyl-1,2-benzoxazol-5-yl)phenyl]ethyl}-1,4-oxazepane-2-carboxamide]	7.79
N#C[C@H](Cc1ccc(-c2ccc(F)cc2)cc1)NC(=O)[C@@H]1CNCCCO1 [Example 32, (2S)-N-[(1S)-1-Cyano-2-(4′-fluorobiphenyl-4-yl)ethyl]-1,4-oxazepane-2-carboxamide]	7.37
Cn1c(=O)sc2ccc(-c3ccc(C[C@@H](C#N)NC(=O)[C@@H]4CNCCCO4)cc3)cc21 [Example 29, (2S)-N-{(1S)-1-Cyano-2-[4-(3-methyl-2-oxo-2,3-dihydro-1,3-benzothiazol-5-yl)phenyl]ethyl}-1,4-oxazepane-2-carboxamide]	8.62
CCn1c(=O)oc2c(C)cc(-c3ccc(C[C@@H](C#N)NC(=O)[C@@H]4CNCCCO4)cc3)cc21 [Example 10, (2S)-N-{(1S)-1-Cyano-2-[4-(3-ethyl-7-methyl-2-oxo-2,3-dihydro-1,3-benzoxazol-5-yl)phenyl]ethyl}-1,4-oxazepane-2-carboxamide]	7.67
Cn1c(=O)oc2c(Cl)cc(-c3ccc(C[C@@H](C#N)NC(=O)[C@@H]4CNCCCO4)cc3)cc21 [Example 26, (2S)-N-{(1S)-2-[4-(7-Chloro-3-methyl-2-oxo-2,3-dihydro-1,3-benzoxazol-5-yl)phenyl]-1-cyanoethyl}-1,4-oxazepane-2-carboxamide]	7.87
CC(C)(O)Cn1c(=O)oc2ccc(-c3ccc(C[C@@H](C#N)NC(=O)[C@@H]4CNCCCO4)cc3)cc21 [Example 11, (2S)-N-[(1S)-1-Cyano-2-{4-[3-(2-hydroxy-2-methylpropyl)-2-oxo-2,3-dihydro-1,3-benzoxazol-5-yl]phenyl}ethyl]-1,4-oxazepane-2-carboxamide]	7.05
N#Cc1ccc(-c2ccc(C[C@@H](C#N)NC(=O)[C@@H]3CNCCCO3)cc2)cn1 [Example 8, (2S)-N-{(1S)-1-Cyano-2-[4-(6-cyanopyridin-3-yl)phenyl]ethyl}-1,4-oxazepane-2-carboxamide]	7.06
N#C[C@H](Cc1ccc(-c2ccc(C(F)(F)F)cc2)cc1)NC(=O)[C@@H]1CNCCCO1 [Example 6, (2S)-N-{(1S)-1-Cyano-2-[4′-(trifluoromethyl)biphenyl-4-yl]ethyl}-1,4-oxazepane-2-carboxamide]	7.44
CN1C(=O)CSc2ccc(-c3ccc(C[C@@H](C#N)NC(=O)[C@@H]4CNCCCO4)cc3)cc21 [Example 9, (2S)-N-{(1S)-1-Cyano-2-[4-(4-methyl-3-oxo-3,4-dihydro-2H-1,4-benzothiazin-6-yl)phenyl]ethyl}-1,4-oxazepane-2-carboxamide]	7.89
N#Cc1ccc(-c2ccc(C[C@@H](C#N)NC(=O)[C@@H]3CNCCCO3)cc2)s1 [Example 22, (2S)-N-{(1S)-1-Cyano-2-[4-(5-cyanothiophen-2-yl)phenyl]ethyl}-1,4-oxazepane-2-carboxamide]	7.71
N#C[C@H](Cc1ccc(-c2ccc3oc(=O)n(CC(F)(F)F)c3c2)cc1)NC(=O)[C@@H]1CNCCCO1 [Example 28, (2S)-N-[(1S)-1-Cyano-2-{4-[2-oxo-3-(2,2,2-trifluoroethyl)-2,3-dihydro-1,3-benzoxazol-5-yl]phenyl}ethyl]-1,4-oxazepane-2-carboxamide]	8.09
N#C[C@H](Cc1ccc(-c2ccc3oc(=O)n(CC4CCOCC4)c3c2)cc1)NC(=O)[C@@H]1CNCCCO1 [Example 25, (2S)-N-[(1S)-1-Cyano-2-{4-[2-oxo-3-(tetrahydro-2H-pyran-4-ylmethyl)-2,3-dihydro-1,3-benzoxazol-5-yl]phenyl}ethyl]-1,4-oxazepane-2-carboxamide]	7.97
N#C[C@H](Cc1ccc(-c2ccc3oc(=O)n(CC4CC4)c3c2)cc1)NC(=O)[C@@H]1CNCCCO1 [Example 17, (2S)-N-[(1S)-1-Cyano-2-{4-[3-(cyclopropylmethyl)-2-oxo-2,3-dihydro-1,3-benzoxazol-5-yl]phenyl}ethyl]-1,4-oxazepane-2-carboxamide]	8.2
COCCn1c(=O)oc2ccc(-c3ccc(C[C@@H](C#N)NC(=O)[C@@H]4CNCCCO4)cc3)cc21 [Example 21, (2S)-N-[(1S)-1-Cyano-2-{4-[3-(2-methoxyethyl)-2-oxo-2,3-dihydro-1,3-benzoxazol-5-yl]phenyl}ethyl]-1,4-oxazepane-2-carboxamide]	8.09
COCCn1c(=O)sc2ccc(-c3ccc(C[C@@H](C#N)NC(=O)[C@@H]4CNCCCO4)cc3)cc21 [Example 18, (2S)-N-[(1S)-1-Cyano-2-{4-[3-(2-methoxyethyl)-2-oxo-2,3-dihydro-1,3-benzothiazol-5-yl]phenyl}ethyl]-1,4-oxazepane-2-carboxamide]	8.5
CN1C(=O)COc2ccc(-c3ccc(C[C@@H](C#N)NC(=O)[C@@H]4CNCCCO4)cc3)cc21 [Example 20, (2S)-N-{(1S)-1-Cyano-2-[4-(4-methyl-3-oxo-3,4-dihydro-2H-1,4-benzoxazin-6-yl)phenyl]ethyl}-1,4-oxazepane-2-carboxamide]	7.9
N#C[C@H](Cc1ccc(-c2ccc(F)c(F)c2)cc1)NC(=O)[C@@H]1CNCCCO1 [Example 7, (2S)-N-[(1S)-1-Cyano-2-(3′,4′-difluorobiphenyl-4-yl)ethyl]-1,4-oxazepane-2-carboxamide]	7.16

Same assay, conditions: Test A1 (Examples 1-35); rhDPP1 ~50 pM, 100 μM H-Gly-Arg-AMC, pH 5.0, 22° C.; read-out: DPP1 activity, pIC50 (converted)

Structure (SMILES)	IC50
N#Cc1ccc(-c2ccc(C[C@@H](C#N)NC(=O)C3CNCCCO3)cc2)cc1 (mixture of isomers) [Example 34, Diastereomeric mixture of (2S)-N-[(1S)-1-cyano-2-(4′-cyanobiphenyl-4-yl)ethyl]-1,4-oxazepane-2-carboxamide and (2R)—N-[(1S)-1-cyano-2-(4′-cyanobiphenyl-4-yl)ethyl]-1,4-oxazepane-2-carboxamide]	0.0603 µM
